Experimental data taken from US6524625B2, “Physiologically active extract obtained from indigo plant polygonum tinctorium” (Kabushiki Kaisha Hayashibara Seibutsu Kagaku Kenkyuto, priority 1998, dated 2003).
Converted amounts (≈) assume the structure as drawn.

How the values were obtained:
[1] = system: Bacillus cereus (IFO 3466); test: Antiseptic action: MIC, agar plate dilution method; format: cell-based; settings: Bacillus cereus, IFO3466, read-out: Minimum inhibitory concentration
[2] = Water-solubility (dissolving in refined water for the NBT test); format: physicochemical; settings: NBT evaluation impossible
Protocol: Then the formed formazan was quantified on spectro-chemical analysis. Either of the present physiologically active extracts was dissolved in a refined water to give an appropriate concentration, and the solutions were used for test samples. As a control it was provided by replacing the test samples with a refined water. The 50% inhibitory activity for the formation of formazan in the control was defined as a one unit activity of radical-entrapping action. Based of the definition, the radical-entrapping activity of one gram of each test sample was determined.
Particularly, the radical-entrapping action of the physiologically active substance of Experiment 1 and Compounds 5 and 6 of Experiment 2 was remarkable.

[3] = system: Pseudomonas aeruginosa (IFO 3453); test: Antiseptic action: MIC, agar plate dilution method; format: cell-based; settings: Pseudomonas aeruginosa, IFO3453, read-out: Minimum inhibitory concentration
HL-60 cells = test: Apoptosis controlling action, propidium iodide flow cytometry; format: cell-based, human; settings: HL-60 cells (5 × 10^5 cells/ml)
Protocol: (§1) The solution was distributed to a microplate in one milliliter per well, and the solution in each well was diluted in series with a fresh preparation of the same medium as used in the above.
(§2) HL-60 cells, ATCC CCL-240, derived from a patient with acute promyelocytic leukemia; U-937 cells, ATCC CRL-1593.2, derived from a patient with human histiocytic lymphoma; HGC-27 cells, RCB0500, derived from a patient with gastric cancer; HLC-1 cells, RCB0083, derived from a patient with lung adenocarcinoma; and C6 cells, ATCC CCL-107, derived from rat glial tumor, were respectively suspended in RPMI1640 medium (pH 7.2) to give a cell density of 1×10^6 cells/ml or 2×10^5 cells/ml. To the microplate, containing a one milliliter dilution of 20, 10 or 5.0 μg/ml of Compound 1, was added one milliliter per well of either of the above cell suspensions and used for test systems. All the test systems were made duplex and respectively subjected to 24- and 48-hour incubations in a 5 v/v % CO2 incubator at 37° C. A system free of Compound 1 was provided and treated similarly as above and used for control.
(§3) According to the method by I. Nicoletti et al. in Journal of Immunological Methods, Vol. 139, pp. 271-279 (1991), the apoptosis-induced cells in the test systems and control were stained by propidium iodide and determined for the percentage of the stained cells to the total cells in such a manner that transferring each of the cultures to polypropylene tubes, centrifuging the tubes, removing the resulting supernatants, washing the cells' sediments with phosphate buffered saline containing 0.3 v/v % calf serum albumin, and further centrifuging the washed cells to remove supernatants. The newly formed sediments were respectively mixed with 50 μg/ml of propidium iodide commercialized by Sigma Chemical Company, St. Louis, Mo., USA, 0.1 w/v % sodium citrate, and0.1 w/v % “TRITON X-100”, a surfactant commercialized by Sigma Chemical Company, St. Louis, Mo., USA, in respective volumes of 1.5 ml to stain the cells by propidium iodide. The stained cells were stored at 4° C. in the dark overnight. The stained cells of each test system were analyzed on “EPICS PROFILE II”, a flow cytometry commercialized by Beckman Coulter, Inc., CA, USA. Based on the data the percentage of the stained cells to the total cells in each test system was measured for apoptosis occurrence.

HGC-27 cells = test: as above; format: cell-based, human; settings: HGC-27 cells (1 × 10^5 cells/ml)
Protocol: as §1, §2, §3

U-937 cells = test: as above; format: cell-based, human; settings: U-937 cells (5 × 10^5 cells/ml)
Protocol: as §1, §2, §3

HLC-1 cells = test: as above; format: cell-based, human; settings: HLC-1 cells (1 × 10^5 cells/ml)
Protocol: as §1, §2, §3

[4] = system: Helicobacter pylori (NCTC 11638); test: Antiseptic action: MIC, agar plate dilution method; format: cell-based
[5] = system: Staphylococcus aureus (ATCC 6538P); test: Antiseptic action: MIC, agar plate dilution method; format: cell-based; settings: Staphylococcus aureus, ATCC6538P, read-out: Minimum inhibitory concentration
C6 cells = test: Apoptosis controlling action, propidium iodide flow cytometry; format: cell-based, rat; settings: C6 cells (1 × 10^5 cells/ml)
Protocol: as §1, §2, §3

[6] = 48 hours, 2.5 μg/ml, control 1.5
[7] = 48 hours, 5.0 μg/ml, control 1.5
[8] = 48 hours, 10 μg/ml, control 1.5

O=C1c2ccccc2-n2c1nc1ccccc1c2=O [Compound 1, 6,12-dihydro-6,12-dioxoindolo[2,1-b]quinazoline]
MIC [1]: 39 µg/mL (≈ 157 µM) | Water-solubility [2]: insufficient water-solubility | MIC [3]: 39 µg/mL (≈ 157 µM) | Apoptosis occurrence (HL-60 cells; 24 hours, 2.5 μg/ml, control 0.7): 0.7% | Apoptosis occurrence (HL-60 cells; 24 hours, 5.0 μg/ml, control 0.7): 1.7% | Apoptosis occurrence (HL-60 cells; 24 hours, 10 μg/ml, control 0.7): 11.8% | Apoptosis occurrence (HL-60 cells; [6]): 1.3% | Apoptosis occurrence (HL-60 cells; [7]): 4.2% | Apoptosis occurrence (HL-60 cells; [8]): 22.6% | Apoptosis occurrence (HGC-27 cells; 24 hours, 2.5 μg/ml, control 1.5): 1.9% | Apoptosis occurrence (HGC-27 cells; 24 hours, 5.0 μg/ml, control 1.5): 1.7% | Apoptosis occurrence (HGC-27 cells; 24 hours, 10 μg/ml, control 1.5): 3.5% | Apoptosis occurrence (HGC-27 cells; 48 hours, 2.5 μg/ml, control 1.4): 2.2% | Apoptosis occurrence (HGC-27 cells; 48 hours, 5.0 μg/ml, control 1.4): 4.1% | Apoptosis occurrence (HGC-27 cells; 48 hours, 10 μg/ml, control 1.4): 14.1% | Apoptosis occurrence (U-937 cells; 24 hours, 2.5 μg/ml, control 3.2): 3.2% | Apoptosis occurrence (U-937 cells; 24 hours, 5.0 μg/ml, control 3.2): 5.0% | Apoptosis occurrence (U-937 cells; 24 hours, 10 μg/ml, control 3.2): 6.8% | Apoptosis occurrence (U-937 cells; 48 hours, 2.5 μg/ml, control 4.5): 5.2% | Apoptosis occurrence (U-937 cells; 48 hours, 5.0 μg/ml, control 4.5): 11.7% | Apoptosis occurrence (U-937 cells; 48 hours, 10 μg/ml, control 4.5): 66.9% | Apoptosis occurrence (HLC-1 cells; 24 hours, 2.5 μg/ml, control 2.7): 3.7% | Apoptosis occurrence (HLC-1 cells; 24 hours, 5.0 μg/ml, control 2.7): 4.2% | Apoptosis occurrence (HLC-1 cells; 24 hours, 10 μg/ml, control 2.7): 8.1% | Apoptosis occurrence (HLC-1 cells; [6]): 5.8% | Apoptosis occurrence (HLC-1 cells; [7]): 7.3% | Apoptosis occurrence (HLC-1 cells; [8]): 21.8% | MIC ([4]; Helicobacter pylori, NCTC11638, read-out: Minimum inhibitory concentration): 2.5 µg/mL (≈ 10.1 µM) | Inhibition of the growth of Helicobacter pylori (in words) ([4]; comment on Table 8): strongly inhibited the growth | MIC [5]: 39 µg/mL (≈ 157 µM) | Apoptosis occurrence (C6 cells; 24 hours, 2.5 μg/ml, control 0.3): 15.9% | Apoptosis occurrence (C6 cells; 24 hours, 5.0 μg/ml, control 0.3): 18.4% | Apoptosis occurrence (C6 cells; 24 hours, 10 μg/ml, control 0.3): 27.6% | Apoptosis occurrence (C6 cells; 48 hours, 2.5 μg/ml, control 0.4): 38.4% | Apoptosis occurrence (C6 cells; 48 hours, 5.0 μg/ml, control 0.4): 64.8% | Apoptosis occurrence (C6 cells; 48 hours, 10 μg/ml, control 0.4): 67.1%
